Experimental data: ChEMBL document CHEMBL1123608, “In vivo antitumor activity of 6-benzyl-1,3-benzodioxole derivatives against the P388, L1210, B16, and M5076 murine models” (1987)
Several values for one entry are separate records, joined by “and”; a condition that tells them apart may be missing. Identical values can stand only once. Activity calls are given as the source filed them. The calls are words filed in the database; no cut-off is given here.

Experiments:
[1] = Ability to inhibit the dibutyryl-cAMP-induced change of an immature glioma cell to a mature, differentiated astrocyte by in vitro astrocytoma assay at 0.1 ug/mL dose (Experiment #1); value may range from 0 to 5; format: functional, Mus musculus
[2] = Ability to inhibit the dibutyryl-cAMP-induced change of an immature glioma cell to a mature, differentiated astrocyte by in vitro astrocytoma assay at 0.1 ug/mL dose (Experiment #2); value may range from 0 to 5; format: functional, Mus musculus
[3] = Ability to inhibit the dibutyryl-cAMP-induced change of an immature glioma cell to a mature, differentiated astrocyte by in vitro astrocytoma assay at 10 ug/mL dose (Experiment #1); value may range from 91 to up; format: functional, Mus musculus
[4] = Ability to inhibit the dibutyryl-cAMP-induced change of an immature glioma cell to a mature, differentiated astrocyte by in vitro astrocytoma assay at 1 ug/mL dose (Experiment #2); value may range from 51 to 70; format: functional, Mus musculus
[5] = Ability to inhibit the dibutyryl-cAMP-induced change of an immature glioma cell to a mature, differentiated astrocyte by in vitro astrocytoma assay at 10 ug/mL dose (Experiment #2); value may range from 91 to up; format: functional, Mus musculus
[6] = Ability to inhibit the dibutyryl-cAMP-induced change of an immature glioma cell to a mature, differentiated astrocyte by in vitro astrocytoma assay at 1 ug/mL dose (Experiment #1); value may range from 51 to 70; format: functional, Mus musculus
Mus musculus [7] = assay: Percent increase in life span (ILS) was measured on P388 cells which were inoculated intraperitoneally in CD2F1 mice; format: functional
Mus musculus [8] = assay: The percent increase in life span on P388 cells which were inoculated intraperitoneally in CD2F1 mice at 5 mg/kg dose placed at ranking order 1; format: functional; details: P388, ip, route intraperitoneal
Mus musculus [9] = assay: The percent increase in life span on P388 cells which were inoculated intraperitoneally in CD2F1 mice at 50 mg/kg dose placed at ranking order 3; format: functional; details: P388, ip, route intraperitoneal
Mus musculus [10] = assay: The percent increase in life span on P388 cells which were inoculated intraperitoneally in CD2F1 mice at 200 mg/kg dose placed at ranking order 2; format: functional; details: P388, ip, route intraperitoneal
[11] = Ability to inhibit the dibutyryl-cAMP-induced change of an immature glioma cell to a mature, differentiated astrocyte by in vitro astrocytoma assay at 10 ug/mL dose (Experiment #1); value may range from 31 to 50; format: functional, Mus musculus
Mus musculus [12] = assay: In vivo antitumor activity against the L1210 leukemia cell line expressed as percent increase in life span; IA means inactive; format: functional, organism-based
Mus musculus [13] = assay: In vivo antitumor activity against the B16 melanoma cell line expressed as percent increase in life span; IA means inactive; format: functional, organism-based
[14] = Ability to inhibit the dibutyryl-cAMP-induced change of an immature glioma cell to a mature, differentiated astrocyte by in vitro astrocytoma assay at 100 ug/mL dose (Experiment #1); value may range from 91 to up; format: functional, Mus musculus
Mus musculus [15] = assay: In vivo antitumor activity against the M5076 reticulum cell sarcoma expressed as percent increase in life span; IA means inactive; format: functional, organism-based
[16] = Ability to inhibit the dibutyryl-cAMP-induced change of an immature glioma cell to a mature, differentiated astrocyte by in vitro astrocytoma assay at 1 ug/mL dose (Experiment #1); value may range from 16 to 30; format: functional, Mus musculus
[17] = Ability to inhibit the dibutyryl-cAMP-induced change of an immature glioma cell to a mature, differentiated astrocyte by in vitro astrocytoma assay at 1 ug/mL dose (Experiment #2) value may range from 16 to 30; format: functional, Mus musculus
Mus musculus [18] = assay: The percent increase in life span on P388 cells which were inoculated intraperitoneally in CD2F1 mice at 100 mg/kg dose placed at ranking order 2; format: functional; details: P388, ip, route intraperitoneal
[19] = Ability to inhibit the dibutyryl-cAMP-induced change of an immature glioma cell to a mature, differentiated astrocyte by in vitro astrocytoma assay at 10 ug/mL dose (Experiment #2); value may range from 31 to 50; format: functional, Mus musculus
[20] = Ability to inhibit the dibutyryl-cAMP-induced change of an immature glioma cell to a mature, differentiated astrocyte by in vitro astrocytoma assay at 100 ug/mL dose (Experiment #2)value may range from 71 to 90; format: functional, Mus musculus
Mus musculus [21] = assay: The percent increase in life span on P388 cells which were inoculated intraperitoneally in CD2F1 mice at 100 mg/kg dose placed at ranking order 1; format: functional; details: P388, ip, route intraperitoneal
[22] = Ability to inhibit the dibutyryl-cAMP-induced change of an immature glioma cell to a mature, differentiated astrocyte by in vitro astrocytoma assay at 10 ug/mL dose (Experiment #2); value may range from 0 to 5; format: functional, Mus musculus
[23] = Ability to inhibit the dibutyryl-cAMP-induced change of an immature glioma cell to a mature, differentiated astrocyte by in vitro astrocytoma assay at 100 ug/mL dose (Experiment #2); value may range from 16 to 30; format: functional, Mus musculus
Mus musculus [24] = assay: The percent increase in life span on P388 cells which were inoculated intraperitoneally in CD2F1 mice at 200 mg/kg dose placed at ranking order 3; format: functional; details: P388, ip, route intraperitoneal
[25] = Ability to inhibit the dibutyryl-cAMP-induced change of an immature glioma cell to a mature, differentiated astrocyte by in vitro astrocytoma assay at 100 ug/mL dose (Experiment #1); value may range from 16 to 30; format: functional, Mus musculus
[26] = Ability to inhibit the dibutyryl-cAMP-induced change of an immature glioma cell to a mature, differentiated astrocyte by in vitro astrocytoma assay at 10 ug/mL dose (Experiment #1); value may range from 6 to 15; format: functional, Mus musculus
[27] = Ability to inhibit the dibutyryl-cAMP-induced change of an immature glioma cell to a mature, differentiated astrocyte by in vitro astrocytoma assay at 1 ug/mL dose (Experiment #2); value may range from 0 to 5; format: functional, Mus musculus
Mus musculus [28] = assay: The percent increase in life span on P388 cells which were inoculated intraperitoneally in CD2F1 mice at 100 mg/kg dose placed at ranking order 4; format: functional; details: P388, ip, route intraperitoneal
[29] = Ability to inhibit the dibutyryl-cAMP-induced change of an immature glioma cell to a mature, differentiated astrocyte by in vitro astrocytoma assay at 1 ug/mL dose (Experiment #1); value may range from 0 to 5; format: functional, Mus musculus
Mus musculus [30] = assay: In vivo antitumor activity against the B16 melanoma cell line expressed as percent increase in life span at 100 mg/kg dose; format: functional
Mus musculus [31] = assay: In vivo antitumor activity against the B16 melanoma cell line expressed as percent increase in life span at 200 mg/kg dose; format: functional
Mus musculus [32] = assay: In vivo antitumor activity against the M5076 reticulum cell sarcoma expressed as percent increase in life span at 500 mg/kg dose; format: functional
Mus musculus [33] = assay: The percent increase in life span on P388 cells which were inoculated intraperitoneally in CD2F1 mice at 400 mg/kg dose placed at ranking order 2; format: functional; details: P388, ip, route intraperitoneal
Mus musculus [34] = assay: In vivo antitumor activity against the L1210 leukemia cell line expressed as percent increase in life span at 200 mg/kg dose; format: functional; details: dose 200 mg/kg
Mus musculus [35] = assay: The percent increase in life span on P388 cells which were inoculated intraperitoneally in CD2F1 mice at 200 mg/kg dose placed at ranking order 1; format: functional; details: P388, ip, route intraperitoneal
Mus musculus [36] = assay: The percent increase in life span on P388 cells which were inoculated intraperitoneally in CD2F1 mice at 300 mg/kg dose placed at ranking order 4; format: functional; details: P388, ip, route intraperitoneal

`COc1cc2c(c(OC)c1OC)-c1ccc(OC)c(=O)cc1[C@@H](NC(C)=O)CC2` [COLCHICINE] showed an Astrocyte reversal [1] of 0%, an Astrocyte reversal [2] of 0% and an Astrocyte reversal [3] of 91%. It also gave an Astrocyte reversal [4] of 51%, an Astrocyte reversal [5] of 91% and an Astrocyte reversal [6] of 51%.

Compound `CCOc1ccc(C(C)c2cc3c(cc2OCC)OCO3)cc1` (stereo not given) has an ILS (Mus musculus [7]) of 71%, an ILS at 5 mg/kg (Mus musculus [8]) of 71% and an ILS at 50 mg/kg (Mus musculus [9]) of 36%. The ILS at 200 mg/kg (Mus musculus [10]) was 56%.

In the case of `CCOc1cc2c(cc1C(C)c1ccc(OC)cc1)OCO2` (stereo not given), the Astrocyte reversal [11] is reported as 50%, the ILS (Mus musculus [12]) is reported as “inactive” and the ILS (Mus musculus [13]) is reported as “inactive”. The Astrocyte reversal [14] was 91%, the ILS (Mus musculus [15]) was “inactive” and the ILS (Mus musculus [7]) was 25%. The Astrocyte reversal [16] was 30%, the Astrocyte reversal [17] was 30% and the ILS at 100 mg/kg (Mus musculus [18]) was 23%. For the same compound, the Astrocyte reversal [19] was 50%, the Astrocyte reversal [20] was 90% and the ILS at 100 mg/kg (Mus musculus [21]) was 25%.

For `COc1ccc(C(C)c2cc3c(cc2OC)OCO3)cc1` (stereo not given), the Astrocyte reversal [22] was 5%, the Astrocyte reversal [23] was 30% and the ILS at 200 mg/kg (Mus musculus [24]) was 74%. The Astrocyte reversal [25] was 30%, the ILS (Mus musculus [12]) was “inactive” and the ILS (Mus musculus [13]) was “inactive”. The Astrocyte reversal [26] was 15%, the ILS (Mus musculus [15]) was “inactive” and the Astrocyte reversal [27] was 5%. The ILS (Mus musculus [7]) was 78%, the ILS at 100 mg/kg (Mus musculus [18]) was 76% and the ILS at 100 mg/kg (Mus musculus [28]) was 53%. For the same compound, the ILS at 100 mg/kg (Mus musculus [21]) was 78% and the Astrocyte reversal [29] was 5%.

In the case of `CCOc1ccc(C(C)c2cc3c(cc2OC)OCO3)cc1` (stereo not given), the ILS at 100 mg/kg (Mus musculus [30]) is reported as 29%, the ILS at 200 mg/kg (Mus musculus [31]) is reported as 42% and the ILS at 200 mg/kg (Mus musculus [24]) is reported as 56%. For the same compound, the ILS (Mus musculus [32]) was 49% and 27%, the ILS at 400 mg/kg (Mus musculus [33]) was 61% and the ILS (Mus musculus [7]) was 78%. For the same compound, the ILS (Mus musculus [34]) was 50% and 24%, the ILS at 200 mg/kg (Mus musculus [35]) was 78% and the ILS at 300 mg/kg (Mus musculus [36]) was 31%.
